According to US20090035385A1, “COMPOSITIONS INCLUDING IRON” (DRUGTECH CORPORATION, priority 2004, published 2009):
Read-outs that look alike come from different tables or passages of the source.

How the values were obtained:
[1] = test system: gastrointestinal iron absorption; conditions: cited from earlier work
[2] = daily administration, 50 mg of elemental iron; based on generally accepted iron absorption rates
[3] = intravenous administration of the promoter
[4] = oral administration of the promoter

| Compound | effect on gastrointestinal iron absorption [1, 3] | effect on gastrointestinal iron absorption [1, 4] | time required to supply 450 mg of iron for RBC regeneration and 300 mg of iron to replenish iron stores [2] |
| --- | --- | --- | --- |
| O=C1O[C@H]([C@@H](O)CO)C(O)=C1O [Ascorbic acid, ascorbic acid] | not increased | enhance gastrointestinal iron absorption |  |
| O=C(O)CCC(=O)O [Succinic acid, succinic acid] | enhance gastrointestinal iron absorption | enhance gastrointestinal iron absorption |  |
| ferrous sulfate |  |  | approximately 9 months |
